{"source": "paper PMC4941640", "about": "(Cancer cell, 2015)", "key": {"DNA-PK [1]": {"molecular_target": "T1, DNA-PK (Homo sapiens, UniProt P78527)", "details": "DNA-PK vs p97, dose titration"}, "HCT116 xenograft tumors": {"test_system": "HCT116 xenograft tumors", "details": "100 mg/kg single oral dose, 6 hr, nude mice"}, "A549 cells [2]": {"test_system": "A549 cells", "experiment": "cells", "details": "Homo sapiens, A549, read-out: EC50, induction of CHOP protein"}, "AMO-1": {"test_system": "AMO-1", "experiment": "cells", "details": "Homo sapiens, AMO1, read-out: IC50 in vitro, AMO-1"}, "HCT 116 T688A xenografts": {"test_system": "HCT 116 T688A xenografts", "details": "90 mg/kg"}, "A549 cells [3]": {"test_system": "A549 cells", "experiment": "p62 modulation by immunofluorescence", "assay_type": "cell-based"}, "HCT116 or A549 tumors": {"test_system": "HCT116 or A549 tumors", "details": "single administration, nude mice bearing HCT116 or A549 tumors"}, "[4]": {"details": "all dosing schedules tested, tumor-bearing mice, po"}, "DNA-PK [5]": {"molecular_target": "T1, DNA-PK", "details": "A549 cells, 6 hr, nuclear phospho-H2AX"}, "AMO-1 xenograft": {"test_system": "AMO-1 xenograft", "details": "after 2 cycles of treatment, qd4/3off"}, "350 cancer cell lines": {"test_system": "350 cancer cell lines", "experiment": "cells", "details": "72 h"}, "PIK3C3": {"test_system": "PIK3C3", "details": "PIK3C3 vs p97, dose titration"}, "mTOR": {"test_system": "mTOR", "details": "mTOR vs p97, dose titration"}, "[6]": {"test_system": "HEK293T cells stably expressing TCRα-GFP", "experiment": "cells", "details": "Homo sapiens, HEK-293T, read-out: EC50, accumulation of TCRα-GFP"}, "[7]": {"test_system": "HEK293 cells expressing GFPu", "experiment": "cells", "details": "Homo sapiens, HEK293, read-out: EC50, accumulation of GFPu"}}, "note": "Read-outs that look alike come from different tables or passages of the source.", "data": [{"smiles": "Cc1cc2c(C(N)=O)cccc2n1-c1nc2c(c(NCc3ccccc3)n1)COCC2", "note": "[CB-5083, 1-[4-(benzylamino)-5H,7H,8H-pyrano[4,3-d]pyrimidin-2-yl]-2-methyl-1H-indole-4-carboxamide]", "values": [{"measurement": "fold less affinity compared to p97", "setting": "DNA-PK [1]", "value": 29.6, "unit": "fold"}, {"measurement": "decrease of p62 protein levels in tumor", "setting": "HCT116 xenograft tumors", "value": 60, "unit": "%"}, {"measurement": "EC50", "setting": "A549 cells [2]", "value": 1190, "unit": "nM"}, {"measurement": "IC50", "setting": "AMO-1", "value": 81, "unit": "nM"}, {"measurement": "tumor growth of T688A mutant model", "setting": "HCT 116 T688A xenografts", "value": "not inhibited"}, {"measurement": "effect on p62 levels", "setting": "A549 cells [3]", "value": "rapidly cleared from cells"}, {"measurement": "accumulation of poly-ubiquitin or CHOP in tumor tissue", "setting": "HCT116 or A549 tumors", "value": "strong and sustained induction of polyubiquitin"}, {"measurement": "tumor growth inhibition (TGI)", "setting": "HCT116 xenograft; 50 mg/kg po, qd", "value": 62, "unit": "%"}, {"measurement": "tumor growth inhibition (TGI)", "setting": "HCT116 xenograft; 100 mg/kg po, qd4/3off", "value": 78, "unit": "%"}, {"measurement": "weight loss", "setting": "[4]", "value": "< 10", "unit": "%"}, {"measurement": "inhibition of DNA-PK in cell-based assay", "setting": "DNA-PK [5]", "value": "not to inhibit DNA-PK at concentrations that caused cell death"}, {"measurement": "complete regressions of tumors (animals)", "setting": "AMO-1 xenograft", "value": "6/12"}, {"measurement": "EC50", "setting": "350 cancer cell lines; read-out: EC50 of cell viability, lower end of range in panel", "value": "≥ 81", "unit": "nM"}, {"measurement": "EC50", "setting": "350 cancer cell lines; read-out: EC50 of cell viability, upper end of range in panel", "value": "≤ 2100", "unit": "nM"}, {"measurement": "fold less affinity compared to p97", "setting": "PIK3C3", "value": 158, "unit": "fold"}, {"measurement": "fold less affinity compared to p97", "setting": "mTOR", "value": 128, "unit": "fold"}, {"measurement": "EC50", "setting": "[6]", "value": 730, "unit": "nM"}, {"measurement": "EC50", "setting": "[7]", "value": 1050, "unit": "nM"}]}, {"smiles": "CC(C)n1nc(-c2ccc3oc(N)nc3c2)c2c(N)ncnc21", "note": "[INK-128]", "values": [{"measurement": "effect on p62 levels", "setting": "A549 cells [3]", "value": "decrease in p62 levels"}]}, {"smiles": "Cc1cc(OCc2nnc(SC3CCCC3)n2-c2cccnc2)ccc1-c1ccc(S(C)(=O)=O)cc1", "note": "[NMS-873]", "values": [{"measurement": "effect on p62 levels", "setting": "A549 cells [3]", "value": "decreases in p62 levels"}]}, {"smiles": "CO/C1=C\\C(C)=C\\[C@@H](C)[C@@H](O)[C@@H](C)C/C(C)=C/C=C/[C@H](OC)[C@@H]([C@@H](C)[C@@H](O)[C@H](C)[C@@]2(O)C[C@@H](O)[C@H](C)[C@@H](C(C)C)O2)OC1=O", "note": "[bafilomycin A1]", "values": [{"measurement": "effect on p62 levels", "setting": "A549 cells [3]", "value": "accumulation of p62 in peri-nuclear foci"}]}, {"smiles": "CC(C)C[C@H](NC(=O)[C@H](Cc1ccccc1)NC(=O)c1cnccn1)B(O)O", "note": "[bortezomib]", "values": [{"measurement": "effect on p62 levels", "setting": "A549 cells [3]", "value": "decreases in p62 levels"}]}]}
